Results as given in ChEMBL document CHEMBL4609989, “Synthesis and antileishmanial activity of fluorinated rhodacyanine analogues: The 'fluorine-walk' analysis” (Bioorg Med Chem, 2020).
pIC50: −log10 of the molar value. Calls of active or inactive are those of the source. No cut-off for these calls is given here.

Assays:
[1] = tested on: Leishmania orientalis; test: Antileishmanial activity against Leishmania orientalis MHOM/TH/2010/PCM2 axenic amastigotes at 0.25 uM incubated for 72 hrs by resazurin dye based colorimetric assay relative to control; assay type: functional; conditions: for inhibition at 0.25 µM: Leishmania orientalis, MHOM/TH/2010/PCM2, 72 h
[2] = tested on: Leishmania martiniquensis; test: Antileishmanial activity against Leishmania martiniquensis MHOM/MQ/92/MAR promastigote at 0.25 uM incubated for 72 hrs by resazurin dye based colorimetric assay relative to control; assay type: functional; conditions: for inhibition at 0.25 µM: Leishmania martiniquensis, MHOM/MQ/92/MAR, 72 h
[3] = tested on: J774.A1; test: Cytotoxicity against mouse J774A.1 cells assessed as reduction in cell viability at 0.25 uM incubated for 72 hrs by colorimetric assay relative to control; assay type: cell-based; conditions: j774.a1, 72 h
[4] = tested on: Leishmania orientalis; test: Antileishmanial activity against Leishmania orientalis MHOM/TH/2010/PCM2 promastigote at 0.25 uM incubated for 72 hrs by resazurin dye based colorimetric assay relative to control; assay type: functional; conditions: for inhibition at 0.25 µM: Leishmania orientalis, MHOM/TH/2010/PCM2, 72 h
[5] = tested on: Leishmania orientalis; test: Antileishmanial activity against Leishmania orientalis MHOM/TH/2010/PCM2 promastigote at 0.1 uM incubated for 72 hrs by resazurin dye based colorimetric assay relative to control; assay type: functional; conditions: for inhibition at 0.1 µM: Leishmania orientalis, MHOM/TH/2010/PCM2, 72 h
[6] = tested on: Leishmania martiniquensis; test: Antileishmanial activity against Leishmania martiniquensis MHOM/MQ/92/MAR promastigote at 0.1 uM incubated for 72 hrs by resazurin dye based colorimetric assay relative to control; assay type: functional; conditions: for inhibition at 0.1 µM: Leishmania martiniquensis, MHOM/MQ/92/MAR, 72 h
[7] = tested on: J774.A1; test: Cytotoxicity against mouse J774A.1 cells assessed as reduction in cell viability at 4.0 uM incubated for 72 hrs by colorimetric assay relative to control; assay type: cell-based; conditions: j774.a1, 72 h
[8] = tested on: Leishmania orientalis; test: Antileishmanial activity against Leishmania orientalis MHOM/TH/2010/PCM2 promastigote incubated for 72 hrs by resazurin dye based colorimetric assay; assay type: functional, organism-based
[9] = tested on: Leishmania orientalis; test: Antileishmanial activity against Leishmania orientalis MHOM/TH/2010/PCM2 axenic amastigotes incubated for 72 hrs by resazurin dye based colorimetric assay; assay type: functional, organism-based
[10] = tested on: Leishmania martiniquensis; test: Antileishmanial activity against Leishmania martiniquensis MHOM/MQ/92/MAR promastigote incubated for 72 hrs by resazurin dye based colorimetric assay; assay type: functional, organism-based
[11] = tested on: Leishmania martiniquensis; test: Potency index, ratio of IC50 for miltefosine to IC50 for test compound for antileishmanial activity against Leishmania martiniquensis MHOM/MQ/92/MAR promastigote incubated for 72 hrs by resazurin dye based colorimetric assay; assay type: functional
[12] = Leishmania orientalis, MHOM/TH/2010/PCM2, 72 h
[13] = Leishmania martiniquensis, MHOM/MQ/92/MAR, 72 h

Structure (SMILES) | inhibition at 0.25 µM [1] [%] | inhibition at 0.25 µM [2] [%] | Activity [3] | inhibition at 0.25 µM [4] [%] | inhibition at 0.1 µM [5] [%] | inhibition at 0.1 µM [6] [%] | Activity [7] [%] | pIC50 [8, 12] | pIC50 [9, 12] | pIC50 [10, 13] | other results
CCn1c(=O)/c(=C/C=C2\Sc3cccc(F)c3N2C)s/c1=C\c1sc2ccccc2[n+]1C.[Cl-] | 40.2 | 73 | Non-Toxic | 84.2 | 33 | 30 | 13.4 |  |  |  | 
CCn1c(=O)/c(=C/C=C2\Sc3ccc(F)cc3N2C)s/c1=C\c1sc2ccc(F)cc2[n+]1C.[Cl-] | 87.9 | 79.8 | Non-Toxic | 81.5 | 57.5 | 56.4 | 13.8 | 6.79 | 7.10 |  | 
CCn1c(=O)/c(=C/C=C2\Sc3cc(F)ccc3N2C)s/c1=C\c1sc2ccccc2[n+]1C.[Cl-] | 91.2 | 87.8 | Non-Toxic | 96 | 60 | 40.3 | 61.8 | 7.06 | 6.65 |  | 
CCn1c(=O)/c(=C/C=C2\Sc3ccccc3N2C)s/c1=C\c1sc2c(F)cccc2[n+]1C.[Cl-] | 42.9 | 85.2 | Non-Toxic | 88.9 | 13.9 | 41.1 | 88.5 |  |  |  | 
CCCCCCCCCCCCCCCCOP(=O)([O-])OCC[N+](C)(C)C [MILTEFOSINE] | 24.9 |  | 7.3% | 4 |  |  | 12.4 |  |  | 4.80 | inhibition [2]: inactive; inhibition [5]: inactive; inhibition [6]: inactive
C[C@@H]1[C@H](O)[C@@H](C)/C=C/C=C/C=C/C=C/C=C/C=C/C=C/[C@H](O[C@@H]2O[C@H](C)[C@@H](O)[C@H](N)[C@@H]2O)C[C@@H]2O[C@](O)(C[C@@H](O)C[C@@H](O)[C@H](O)CC[C@@H](O)C[C@@H](O)CC(=O)O[C@H]1C)C[C@H](O)[C@H]2C(=O)O [AMPHOTERICIN B] | 91.1 | 97.5 | Non-Toxic | 96.7 | 96.2 | 94.2 | 16.7 | 7.64 | 6.97 | 7.51 | 
CCn1c(=O)/c(=C/C=C2\Sc3ccccc3N2C)s/c1=C\c1sc2cccc(F)c2[n+]1C.[Cl-] | 58.2 | 64.1 | Non-Toxic | 92.9 | 67.5 | 37.7 | 24.9 | 7.19 |  |  | 
CCn1c(=O)/c(=C/C=C2\Sc3ccc(F)cc3N2C)s/c1=C\c1sc2cc(F)ccc2[n+]1C.[Cl-] | 88.9 | 75.9 | Non-Toxic | 79.3 | 20.4 | 43.9 | 21 |  | 7.09 |  | 
CCn1c(=O)/c(=C/C=C2\Sc3cc(C(F)(F)F)ccc3N2C)s/c1=C\c1sc2ccc(F)cc2[n+]1C.[Cl-] | 68.4 | 39.2 | 13.3% | 33.3 |  | 5.9 | 52.2 |  |  |  | inhibition [5]: inactive
CCn1c(=O)/c(=C/C=C2\Sc3ccccc3N2C)s/c1=C\c1sc2ccc(F)cc2[n+]1C.[Cl-] |  |  | Non-Toxic |  |  |  | 26.9 |  |  |  | inhibition (INH) [1]: 86.5%; inhibition (INH) [2]: 89.3%; pIC50 [10]: 7.07; pIC50 [8]: 6.98; inhibition (INH) [4]: 91.7%; pIC50 [9]: 7.10; inhibition (INH) [5]: 66.2%; Ratio IC50 [11]: 200; inhibition (INH) [6]: 82.8%
CCn1c(=O)/c(=C/C=C2\Sc3cc(F)ccc3N2C)s/c1=C\c1sc2cc(F)ccc2[n+]1C.[Cl-] | 62.1 | 62.9 | Non-Toxic | 76 | 1.9 | 17.6 | 46 |  |  |  | 
CCn1c(=O)/c(=C/C=C2\Sc3c(F)cccc3N2C)s/c1=C\c1sc2ccccc2[n+]1C.[Cl-] | 47.9 | 92.7 | Non-Toxic | 75.4 |  | 56.1 | 72.8 |  |  | 6.57 | inhibition [5]: inactive
CCn1c(=O)/c(=C/C=C2\Sc3cc(F)ccc3N2C)s/c1=C\c1sc2ccc(F)cc2[n+]1C.[Cl-] | 93 | 93.4 | Non-Toxic | 93 | 32.3 | 54.3 | 20.7 |  | 7.07 | 6.85 | 
CCn1c(=O)/c(=C/C=C2\Sc3ccccc3N2C)s/c1=C\c1sc2cc(F)ccc2[n+]1C.[Cl-] | 78.5 | 71.1 | Non-Toxic | 95.4 | 85.7 | 57.1 | 41.3 | 7.40 | 6.70 |  | 
CCn1c(=O)/c(=C/C=C2\Sc3ccccc3N2C)s/c1=C\c1sc2cc(C(F)(F)F)ccc2[n+]1C.[Cl-] | 71.1 | 24.9 | 0.5% | 87.6 | 39 | 10.5 | 33.3 |  |  |  | 
CCn1c(=O)/c(=C/C=C2\Sc3ccccc3N2C)s/c1=C\c1sc2cc(OC(F)(F)F)ccc2[n+]1C.[Cl-] | 59.2 | 27.1 | Non-Toxic | 60.9 | 12.5 | 8.7 | 48.6 |  |  |  | 
CCn1c(=O)/c(=C/C=C2\Sc3ccccc3N2C)s/c1=C\c1sc2cc(F)c(F)cc2[n+]1C.[Cl-] | 92.8 | 91.2 | Non-Toxic | 89.5 | 61.6 | 80.6 | 18.6 | 6.94 | 7.11 | 6.97 | 
CCn1c(=O)/c(=C/C=C2\Sc3ccccc3N2C)s/c1=C\c1sc2ccccc2[n+]1C.[Cl-] | 36.8 | 70.8 | Non-Toxic | 81.5 | 11.5 | 21 | 19.2 | 6.52 | 6.04 | 6.18 | 
CCn1c(=O)/c(=C/C=C2\Sc3ccccc3N2C)s/c1=C\c1sc2ccc(F)cc2[n+]1C.Cc1ccc(S(=O)(=O)[O-])cc1 | 91 | 89.5 | Non-Toxic | 91.7 | 78.8 | 85.4 | 31.1 | 7.01 | 6.96 | 7.12 | 
CCn1c(=O)/c(=C/C=C2\Sc3ccc(F)cc3N2C)s/c1=C\c1sc2ccccc2[n+]1C.[Cl-] | 92.2 | 89.2 | Non-Toxic | 90.4 | 50.1 | 76.9 | 37 | 6.88 | 6.87 | 6.86 | 
